Measured values: PMC9884089 (Journal of Medicinal Chemistry, 2023)

Assays:
[1] = target: T1, PARP10 (Homo sapiens, UniProt Q53GL7); assay: Cellular MARylation assay (immunoblot of PARP10 auto-MARylation); assay type: cell-based; details: 10 μM, 16 h, HeLa cells
T1 construct: made in house
T1 sequence (Q53GL7 1-1025): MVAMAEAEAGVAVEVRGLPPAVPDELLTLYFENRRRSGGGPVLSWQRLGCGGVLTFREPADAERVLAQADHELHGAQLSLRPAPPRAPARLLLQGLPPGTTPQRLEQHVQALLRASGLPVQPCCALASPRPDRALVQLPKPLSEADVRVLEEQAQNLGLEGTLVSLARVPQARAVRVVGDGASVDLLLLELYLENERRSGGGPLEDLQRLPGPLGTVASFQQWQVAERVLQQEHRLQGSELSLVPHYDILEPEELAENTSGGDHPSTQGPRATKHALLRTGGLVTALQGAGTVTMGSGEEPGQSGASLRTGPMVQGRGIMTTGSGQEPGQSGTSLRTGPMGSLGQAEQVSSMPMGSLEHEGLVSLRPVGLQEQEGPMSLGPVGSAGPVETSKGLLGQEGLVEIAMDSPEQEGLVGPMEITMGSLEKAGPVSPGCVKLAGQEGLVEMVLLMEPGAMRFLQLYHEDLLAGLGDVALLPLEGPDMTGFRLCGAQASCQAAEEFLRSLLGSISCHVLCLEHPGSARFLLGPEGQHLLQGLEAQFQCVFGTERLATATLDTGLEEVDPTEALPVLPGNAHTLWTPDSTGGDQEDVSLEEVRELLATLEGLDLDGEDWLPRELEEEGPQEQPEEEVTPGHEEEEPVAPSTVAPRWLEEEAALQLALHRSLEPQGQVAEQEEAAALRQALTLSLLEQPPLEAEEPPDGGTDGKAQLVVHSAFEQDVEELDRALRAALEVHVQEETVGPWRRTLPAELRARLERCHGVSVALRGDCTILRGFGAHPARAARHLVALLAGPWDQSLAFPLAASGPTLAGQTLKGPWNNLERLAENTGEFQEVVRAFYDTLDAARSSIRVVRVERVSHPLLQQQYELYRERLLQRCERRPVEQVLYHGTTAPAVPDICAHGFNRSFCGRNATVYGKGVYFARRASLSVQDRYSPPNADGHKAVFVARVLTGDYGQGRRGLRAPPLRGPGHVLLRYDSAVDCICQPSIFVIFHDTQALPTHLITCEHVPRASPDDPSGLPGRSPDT
Procedure: Cells were lysed in RIPA lysis buffer [10 mM Tris pH 7.4; 150 mM NaCl; 1% NP-40; 1% desoxycholate; 0,1% SDS; protease inhibitor cocktail (Sigma-Aldrich) and 10 μM olaparib (Selleck Chemicals)], and lysates were analyzed via SDS-PAGE and immunoblotting using specific anti-PARP10 (Eurogentec),[93] anti-MAR/PAR (Cell Signaling, E6F6A, anti-poly/Mono-ADP-ribose antibody), and anti-α-tubulin (B 5-1-2, Sigma-Aldrich) antibodies.

[2] = target: T2, Human PARP6 (Homo sapiens, UniProt Q2NL67); assay: PARP6 inhibition assay (400 nM PARP6, 500 nM NAD+, 18 h); assay type: biochemical; details: ≫ no inhibition at the concentration; > less than 50% inhibition
T2 construct: Human PARP6 (Uniprot #Q2NL67-1) was cloned into a modified pFASTBac1 vector; 6× His-MBP with TEV protease site (N, cleaved yes); made in house; host or cells: Sf21 insect cells (baculovirus)
Procedure: Inhibition experiments were performed using a homogenous assay measuring NAD+ consumption.[80]−[82] Reactions were carried out in quadruplicate, and IC50 curves were fitted using sigmoidal dose response curve (four variables) in GraphPad Prism version 8.02. […] Assay conditions for PARP2, TNKS2, PARP10, and PARP15 (Tables 1–3) were recently reported.[44] The conditions for the proximity-enhanced mono-ART assays (Table 4) were also reported recently.[47] PARP6 (400 nM) inhibition was measured using the standard buffer (50 mM sodium phosphate pH 7.0) for the enhanced activity assay using 500 nM NAD^+ and 18 h incubation in r.t..

[3] = PAMPA, blood brain barrier (BBB) permeability; assay type: in vitro ADME; details: brain polar lipid; for Papp at 5 h, 500 μM: pH 7.4, 5 h
Procedure: Each “donor solution” was prepared from a solution of the appropriate compound (DMSO, 1 mM) diluted with phosphate buffer (pH 7.4, 0.025 M) up to a final concentration of 500 μM. […] Donor solution (150 μL) was added to each well of the filter plate and to each well of the acceptor plate was added 300 μL of solution (50% DMSO in phosphate buffer). The sandwich plate was assembled and incubated for 5 h at r.t. After the incubation time, the plates were separated, and the samples were taken from both the donor and acceptor wells, and the amount of compound was measured by UV/LC–MS. All compounds were tested in three independent experiments. […] Drug concentration is estimated by using the peak area integration. Membrane retentions (%) were calculated according to the following equation [drawing 2] where r is the ratio between drug concentration in the acceptor and equilibrium concentration and D, A, and Eq represent drug concentration in the donor, acceptor, and equilibrium solution, respectively.

T2 sequence (Q2NL67 whole entry): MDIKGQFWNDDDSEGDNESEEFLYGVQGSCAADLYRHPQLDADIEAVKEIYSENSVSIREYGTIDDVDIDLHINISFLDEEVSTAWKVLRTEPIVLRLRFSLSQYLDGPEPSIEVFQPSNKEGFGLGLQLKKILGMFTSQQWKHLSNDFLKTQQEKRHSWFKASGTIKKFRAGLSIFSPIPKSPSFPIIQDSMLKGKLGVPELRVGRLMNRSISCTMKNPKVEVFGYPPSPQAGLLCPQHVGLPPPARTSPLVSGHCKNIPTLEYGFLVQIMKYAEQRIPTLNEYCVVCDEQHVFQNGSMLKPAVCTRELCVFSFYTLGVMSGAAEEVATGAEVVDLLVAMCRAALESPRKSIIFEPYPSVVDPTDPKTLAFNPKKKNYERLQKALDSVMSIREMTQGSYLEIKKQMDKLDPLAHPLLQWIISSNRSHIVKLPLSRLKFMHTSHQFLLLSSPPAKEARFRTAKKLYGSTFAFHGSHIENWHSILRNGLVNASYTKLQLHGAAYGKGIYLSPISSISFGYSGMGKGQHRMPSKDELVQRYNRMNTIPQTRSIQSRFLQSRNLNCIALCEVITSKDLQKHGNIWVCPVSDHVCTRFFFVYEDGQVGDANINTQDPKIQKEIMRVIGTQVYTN

SMILES	inhibition of auto-MARylation of overexpressed PARP10 in cells [1]	IC50 [2]	BBB RM % (retention membrane percentage) [3]	Papp at 5 h, 500 μM [3]
Cc1ccc2c(c1)sc1nnc(N)n12 [Compound 21, 7-Methyl[1,2,4]triazolo[3,4-b][1,3]benzothiazol-3-amine]	effectively inhibited	> 10 µM	5.3%	0.475 ×10⁻⁶ cm/s
COc1ccc(OC)c2c1sc1nnc(N)n12 [Compound 27, 5,8-Dimethoxy[1,2,4]triazolo[3,4-b][1,3]benzothiazol-3-amine]	effectively inhibited	7.7 µM	3.4%	0.143 ×10⁻⁶ cm/s
